In patent US9302999B2, “Substituted triazoles as herbicides” (E. I. DU PONT DE NEMOURS AND COMPANY, priority 2012, dated 2016):

What was measured:
Format in all cases: in vivo
[1] = test system: foxtail, green (green foxtail Setaria viridis); assay: Test F pre-/postemergence: foxtail, green; details: Preemergence
Outline: (§1)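 Seeds were sown in silt loam soil and sprayed preemergence with test chemical in a non-phytotoxic solvent mixture containing surfactant; postemergence treatments went onto plants 2 to 18 cm tall (1- to 4-leaf stage) grown in peat moss/vermiculite medium. After 14 to 21 days in a greenhouse, injury was rated visually against controls, 0 (no effect) to 100 (complete control).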

[2] = test system: Russian thistle (Salsola kali); assay: Test C pre-/postemergence: Russian thistle; details: Preemergence
Outline: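 Visual injury scored 0–100 (100 = complete control) against untreated controls after 13–15 greenhouse days. Surfactant-containing solvent formulations applied either to soil after sowing (loam/sand) or over 1- to 4-leaf plants, 2–18 cm tall.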

[3] = test system: waterhemp (common waterhemp, Amaranthus rudis); assay: Test F pre-/postemergence: waterhemp
Description: Seeds of plant species selected from corn (Zea mays), soybean (Glycine max), velvetleaf (Abutilon theophrasti), lambsquarters (Chenopodium album), poinsettia, wild (wild poinsettia, Euphorbia heterophylla), pigweed, palmer (palmer pigweed, Amaranthus palmeri), waterhemp (common waterhemp, Amaranthus rudis), surinam grass (Brachiaria decumbens), crabgrass, Brazil (Brazilian crabgrass, Digitaria horizontalis), panicum, fall (fall panicum Panicum dichotomiflorum), crabgrass, large (large crabgrass, Digitaria sanguinalis), foxtail, giant (giant foxtail, Setaria faberii), foxtail, green (green foxtail Setaria viridis), goosegrass (Eleusine indica), ragweed (common ragweed, Ambrosia elatior), barnyardgrass (Echinochloa crus-galli), sandbur (southern sandbur, Cenchrus echinatus), arrowleaf sida (Sida rhombifolia), ryegrass, Italian (Italian ryegrass, Lolium multiflorum), dayflower, VA (Virginia (VA) dayflower, Commelina virginica), field bindweed (Convolvulus arvensis), cocklebur (common cocklebur, Xanthium strumarium), morningglory (Ipomoea coccinea), nightshade (eastern black nightshade, Solanum ptycanthum), kochia (Kochia scoparia), nutsedge, yellow (yellow nutsedge, Cyperus esculentus), johnsongrass (Sorghum halepense), smartweed (ladysthumb smartweed, Polygonum persicaria), and beggarticks (hairy beggarticks, Bidens pilosa), were planted into a silt loam soil and treated preemergence with test chemicals formulated in a non-phytotoxic solvent mixture which included a surfactant. At the same time, plants selected from these crop and weed species and also pigweed (Amaranthus retroflexus), waterhemp_RES1 (ALS/Triazine resistant common waterhemp, Amaranthus rudis) and waterhemp_RES2 (ALS/HPPD resistant common waterhemp, Amaranthus rudis) were planted in pots containing a planting medium comprising spaghnum peat moss, vermiculite, wetting agent and starter nutrients treated with postemergence applications of some of the test chemicals formulated in the same manner. Plants ranged in height from 2 to 18 cm for postemergence treatments (1- to 4-leaf stage).
Treated plants and controls were maintained in a greenhouse for 14 to 21 days, after which time all species were compared to controls and visually evaluated. Plant response ratings, summarized in Table E, are based on a scale of 0 to 100 where 0 is no effect and 100 is complete control. A dash (-) response means no test result.

[4] = test system: velvetleaf (Abutilon theophrasti); assay: Test F pre-/postemergence: velvetleaf; details: Preemergence
Outline: as §1

[5] = test system: Russian thistle (Salsola iberica); assay: Test D pre-/postemergence: Russian thistle; details: Postemergence; for Plant response rating, Russian Thistle: 16 g ai/ha, scale 0 to 100
Outline: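 We sprayed chemicals in a surfactant-containing solvent onto silt loam at planting (preemergence) and onto 1- to 4-leaf seedlings (postemergence). Fourteen to 21 days later, each species was rated visually from 0 to 100 relative to controls.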

[6] = 16 g ai/ha, scale 0 to 100, 0 no effect, 100 complete control
[7] = 31 g ai/ha, scale 0 to 100, 0 no effect, 100 complete control
[8] = 250 g ai/ha, scale 0 to 100, 0 no effect, 100 complete control
[9] = Preemergence, 16 g ai/ha, scale 0 to 100, 0 no effect, 100 complete control
[10] = Preemergence, 31 g ai/ha, scale 0 to 100, 0 no effect, 100 complete control
[11] = Preemergence, 125 g ai/ha, scale 0 to 100
[12] = Preemergence, 250 g ai/ha, scale 0 to 100
[13] = 62 g ai/ha, scale of 0 to 100, 0 is no effect, 100 is complete control
[14] = 125 g ai/ha, scale 0 to 100, 0 no effect, 100 complete control
[15] = 31 g ai/ha, scale 0 to 100 (0 no effect, 100 complete control)
[16] = 62 g ai/ha, scale 0 to 100 (0 no effect, 100 complete control)
[17] = Postemergence, 250 g ai/ha, scale 0 to 100
[18] = Postemergence, 31 g ai/ha, scale 0 to 100
[19] = Postemergence, 125 g ai/ha, scale 0 to 100
[20] = 8 g ai/ha, scale 0 to 100, 0 no effect, 100 complete control

Compound | Plant response rating, Foxtail, Green [1, 6] | Plant response rating, Foxtail, Green [1, 7] | Plant response rating, Foxtail, Green ([1]; 62 g ai/ha, scale 0 to 100) | Plant response rating, Foxtail, Green ([1]; 125 g ai/ha, scale 0 to 100) | Plant response rating, Foxtail, Green ([1]; 250 g ai/ha, scale 0 to 100) | Plant response rating, Russian Thistle [2, 8] | Plant response rating, Waterhemp [3, 9] | Plant response rating, Waterhemp [3, 10] | Plant response rating, Waterhemp [3, 11] | Plant response rating, Waterhemp [3, 12] | Plant response rating, Velvetleaf [4, 6] | Plant response rating, Velvetleaf [4, 7] | Plant response rating, Velvetleaf ([4]; 125 g ai/ha, scale 0 to 100) | Plant response rating, Velvetleaf ([4]; 250 g ai/ha, scale 0 to 100) | Plant response rating, Russian Thistle [2, 14] | Plant response rating: Russian Thistle [5, 15] | Plant response rating: Russian Thistle [5, 16] | Plant response rating: Russian Thistle [5, 14] | Plant response rating, Russian Thistle [5] | also measured
COc1nn(-c2cccc(F)c2)nc1Cc1ccnc(C(F)(F)F)c1 [Compound 139] | 10 | 35 | 98 | 100 | 100 | 5 | 70 | 100 | 100 | 100 | 0 | 0 | 0 | 65 | – | – | – | – | – | –
Cc1nn(-c2ccc(F)cc2F)nc1Oc1ccnc(C(F)(F)F)c1 [Compound 146] | 20 | 20 | 50 | 100 | 100 | 95 | 25 | 75 | 100 | 100 | 0 | 0 | 0 | 25 | 80 | – | – | – | – | Plant response rating, Russian Thistle ([2]; 31 g ai/ha, scale of 0 to 100, 0 is no effect, 100 is complete control): 0; Plant response rating, Russian Thistle [2, 13]: 0
Cc1nn(-c2ccc(C(F)(F)F)c(F)c2)nc1Oc1ccnc(C(F)(F)F)c1 [Compound 148] | 35 | 100 | 100 | 100 | 100 | 95 | 30 | 90 | 100 | 100 | 0 | 0 | 25 | 65 | 95 | 75 | 85 | 75 | 65 | Plant response rating, Russian Thistle [2, 13]: 85
CCc1nn(-c2ccc(C(F)(F)F)cc2)nc1Cc1ccnc(C(F)(F)F)c1 [Compound 155] | – | – | 100 | 100 | 100 | – | – | – | 100 | 100 | – | – | 98 | 98 | – | 80 | 85 | 85 | 70 | –
CCc1nn(-c2ccc(C(F)(F)F)cc2)nc1Oc1ccnc(C(F)(F)F)c1 [Compound 169] | 98 | 100 | 100 | 100 | 100 | – | 60 | 80 | 100 | 100 | 0 | 0 | 60 | 100 | – | – | – | – | – | Plant response rating, Waterhemp [3, 17]: 100; Plant response rating, Waterhemp ([3]; Postemergence, 16 g ai/ha, scale 0 to 100): 75; Plant response rating, Waterhemp [3, 18]: 90; Plant response rating, Waterhemp ([3]; Postemergence, 62 g ai/ha, scale 0 to 100): 90; Plant response rating, Waterhemp [3, 19]: 100
CCc1nn(-c2ccc(F)c(F)c2)nc1Oc1ccnc(C(F)(F)F)c1 [Compound 171] | 20 | 50 | 95 | 100 | 100 | – | 0 | 95 | 100 | 100 | 0 | 0 | 15 | 50 | – | – | – | – | – | –
CCCc1nn(-c2ccc(F)c(F)c2)nc1Oc1ccnc(C(F)(F)F)c1 [Compound 172] | – | 75 | – | 100 | 100 | – | – | 98 | 100 | 100 | – | 0 | 80 | 100 | – | – | – | – | – | Plant response rating, Waterhemp [3, 17]: 100; Plant response rating, Waterhemp [3, 18]: 95; Plant response rating, Waterhemp [3, 19]: 100
CCOc1nn(-c2ccc(F)cc2)nc1Cc1ccnc(C(F)(F)F)c1 [Compound 196, 4-[[5-ethoxy-2-(4-fluorophenyl)-2H-1,2,3-triazol-4-yl]methyl]-2-(trifluoromethyl)pyridine] | 75 | 85 | 100 | 100 | – | 90 | 95 | 98 | 100 | – | 10 | 20 | 95 | – | 90 | 90 | 80 | 75 | 80 | Plant response rating, Foxtail, Green [1, 20]: 75; Plant response rating, Russian Thistle ([2]; 31 g ai/ha, scale 0 (no effect) to 100 (complete control)): 90; Plant response rating, Russian Thistle ([2]; 62 g ai/ha, scale 0 to 100, 0 no effect, 100 complete control): 90; Plant response rating, Waterhemp ([3]; Preemergence, 8 g ai/ha, scale 0 to 100, 0 no effect, 100 complete control): 50; Plant response rating, Velvetleaf [4, 20]: 0
